Data: patent US8378172B2, “Methods using acyl-CoA binding proteins to enhance low-temperature tolerance in genetically modified plants” (The University of Hong Kong, priority 2009, dated 2013)

Assays:
(His)6-ACBP6 [1] = molecular target: T1, (His)6-ACBP6 (Arabidopsis thaliana, UniProt P57752); experiment: in vitro filter-binding assay, (His)6-ACBP6/lipid binding on nitrocellulose; conditions: 1 μg/ml (His)6-ACBP6
T1 construct: made in house; host or cells: Escherichia coli
Method: A, Purification of (His)6-ACBP6 recombinant protein. […] M, marker; lane 1, flow through fraction; lane 2, washing fraction at pH 6.3; lanes 3-8, eluted fractions at pH 5.9; lanes 9-12, eluted fractions at pH 4.5. B, (His)6-ACBP6/lipid binding on filters. Various concentrations (0, 12.5, 25.0 and 32.5 μM) of lipids (PA, PC and LysoPC) were spotted onto nitrocellulose and incubated with 1 μg/ml of purified (His)6-ACBP6 protein. The (His)6-ACBP6/lipid binding was detected by immunoblotting with HRP-conjugated anti-penta-His antibodies. C, Effect of PC acyl species on (His)6-ACBP6/lipid binding. Fifty μM lipid (PC, 16:0-PC, 18:0-PC, 18:1-PC, 18:2-PC or DMPC) spotted onto nitrocellulose was incubated with 1 μg/ml of purified (His)6-ACBP6 protein. The (His)6-ACBP6/lipid binding was detected by immunoblotting with HRP-conjugated anti-penta-His antibodies. […]
Expression and purification of His-tagged ACBP6 recombinant protein was carried out according to Xiao et al. (Plant J 54: 141-151, 2008). […] Following incubated with the HRP-conjugated anti-penta-His antibodies (1:2,000; QIAGEN, Cat. No. 1014922) for 1 h at RT, the filter was again washed 3 times with TTBS, each for 10 min and then detected with the ECL Western Blotting Detection Kit (Amersham) following the manufacturer's protocols.
T1 sequence (P57752 other isoform, or with tags, fused parts or gaps): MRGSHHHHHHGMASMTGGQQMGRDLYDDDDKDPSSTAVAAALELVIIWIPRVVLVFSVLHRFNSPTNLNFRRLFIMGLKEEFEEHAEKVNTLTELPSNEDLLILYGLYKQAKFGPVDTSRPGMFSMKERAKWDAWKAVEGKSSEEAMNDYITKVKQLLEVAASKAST

(His)6-ACBP6 [2] = molecular target: T2, (His)6-ACBP6 (Arabidopsis thaliana, UniProt P57752); conditions: recombinant (His)6-ACBP6; read-out: dissociation constant (Kd) in binding oleoyl-CoA esters; cited from earlier work
T2 construct: (His)6
T2 sequence (P57752 1-92): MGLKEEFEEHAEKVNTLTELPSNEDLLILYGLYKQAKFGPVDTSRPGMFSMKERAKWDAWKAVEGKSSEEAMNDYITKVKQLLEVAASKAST

(His)6-ACBP4 = molecular target: T3, (His)6-ACBP4 (Arabidopsis thaliana, UniProt Q9MA55); conditions: recombinant (His)6-ACBP4; read-out: dissociation constant (Kd) in binding oleoyl-CoA esters; cited from earlier work
T3 construct: (His)6
T3 sequence (Q9MA55 1-668): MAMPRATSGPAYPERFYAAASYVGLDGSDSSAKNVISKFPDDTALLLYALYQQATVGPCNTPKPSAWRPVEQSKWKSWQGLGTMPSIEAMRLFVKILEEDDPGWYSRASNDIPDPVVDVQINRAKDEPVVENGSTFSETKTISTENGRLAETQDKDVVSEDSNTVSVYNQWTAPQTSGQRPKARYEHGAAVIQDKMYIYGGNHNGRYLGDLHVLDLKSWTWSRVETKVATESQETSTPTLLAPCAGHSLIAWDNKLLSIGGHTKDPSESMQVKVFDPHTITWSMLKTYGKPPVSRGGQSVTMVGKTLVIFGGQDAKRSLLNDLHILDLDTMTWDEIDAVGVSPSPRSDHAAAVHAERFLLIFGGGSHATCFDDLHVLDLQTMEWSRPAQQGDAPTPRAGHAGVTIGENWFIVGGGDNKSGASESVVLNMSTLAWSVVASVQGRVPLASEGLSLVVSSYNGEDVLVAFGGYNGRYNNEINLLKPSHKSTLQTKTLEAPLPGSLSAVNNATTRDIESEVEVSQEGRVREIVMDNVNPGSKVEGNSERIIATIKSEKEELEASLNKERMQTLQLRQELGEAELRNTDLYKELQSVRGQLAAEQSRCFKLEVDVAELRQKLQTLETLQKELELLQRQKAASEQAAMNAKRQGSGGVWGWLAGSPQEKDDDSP

(His)6-ACBP5 = molecular target: T4, (His)6-ACBP5 (Arabidopsis thaliana, UniProt Q8RWD9); conditions: recombinant (His)6-ACBP5; read-out: dissociation constant (Kd) in binding oleoyl-CoA esters; cited from earlier work
T4 construct: (His)6
T4 sequence (Q8RWD9 1-648): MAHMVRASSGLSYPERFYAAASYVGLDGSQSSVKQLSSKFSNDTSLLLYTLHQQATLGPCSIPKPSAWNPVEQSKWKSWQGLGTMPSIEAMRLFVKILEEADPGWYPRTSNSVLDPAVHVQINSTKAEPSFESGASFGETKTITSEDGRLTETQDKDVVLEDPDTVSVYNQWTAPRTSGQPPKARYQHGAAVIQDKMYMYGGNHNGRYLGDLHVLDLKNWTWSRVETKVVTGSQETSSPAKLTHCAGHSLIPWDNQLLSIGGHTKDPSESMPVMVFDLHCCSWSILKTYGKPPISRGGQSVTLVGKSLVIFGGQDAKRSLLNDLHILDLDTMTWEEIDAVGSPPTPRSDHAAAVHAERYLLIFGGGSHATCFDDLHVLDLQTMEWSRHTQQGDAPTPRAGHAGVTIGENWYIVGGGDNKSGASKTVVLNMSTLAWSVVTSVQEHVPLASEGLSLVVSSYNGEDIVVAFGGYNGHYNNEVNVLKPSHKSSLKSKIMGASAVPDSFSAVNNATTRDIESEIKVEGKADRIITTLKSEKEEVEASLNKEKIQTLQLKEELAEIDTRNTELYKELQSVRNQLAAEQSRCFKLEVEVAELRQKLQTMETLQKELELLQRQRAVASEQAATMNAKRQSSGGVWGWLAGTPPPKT

## 1,2-diacyl-sn-glocero-3-phosphocholine [PC]
(His)6-ACBP6 [1]; 0, 12.5, 25.0 and 32.5 μM lipid spotted, FIG. 7B
  (His)6-ACBP6/lipid binding on filters: binds

## CCCCCCCCCCCCCC(=O)OC[C@H](COP(=O)([O-])OCC[N+](C)(C)C)OC(=O)CCCCCCCCCCCCC [DMPC, 1,2-dimyristoyl-sn-glycero-3-phosphocholine]
(His)6-ACBP6 [1]; 50 μM lipid spotted, FIG. 7C
  effect of PC acyl species on (His)6-ACBP6/lipid binding: did not bind

## CCCCCCCC/C=C\CCCCCCCC(=O)SCCNC(=O)CCNC(=O)[C@H](O)C(C)(C)COP(=O)(O)OP(=O)(O)OC[C@H]1O[C@@H](n2cnc3c(N)ncnc32)[C@H](O)[C@@H]1OP(=O)(O)O [oleoyl-CoA]
(His)6-ACBP6 [2]
  Kd: 3700 nM
(His)6-ACBP4
  Kd: 560 nM
(His)6-ACBP5
  Kd: 680 nM
